# Reference: patent US9732104B2, “Ether compounds for treatment of complement mediated disorders” (Achillion Pharmaceuticals, Inc., priority 2014, dated 2017)
# Target: Human factor D (Homo sapiens (Human), UniProt P00746)
# Assay: Human Factor D Assay
# Format: biochemical
# Conditions: Human factor D purified from human serum, 80 nM; substrate Z-L-Lys-SBzl with DTNB; assay of Example 8
# Protocol: The assay of Example 8 was used to determine the IC50's of the compounds. Other standard factor D inhibition assays are also available.
# Example 8. Human Factor D Assay
# Human factor D (purified from human serum, Complement Technology, Inc.) at 80 nM final concentration is incubated with test compound at various concentrations for 5 minutes at room temperature in 50 mM Tris, 1M NaCl, pH 7.5. A synthetic substrate Z-L-Lys-SBzl and DTNB (Ellman's reagent) are added to final concentrations of 100 µM each. The increase in color is recorded at OD405 nm in a microplate in kinetic mode over 30 minutes with 30 second time points in a […]. IC50 values are calculated by non-linear regression from the percentage of inhibition of complement factor D activity as a function of test compound concentration.
# Human factor D, sequence (P00746 26-253): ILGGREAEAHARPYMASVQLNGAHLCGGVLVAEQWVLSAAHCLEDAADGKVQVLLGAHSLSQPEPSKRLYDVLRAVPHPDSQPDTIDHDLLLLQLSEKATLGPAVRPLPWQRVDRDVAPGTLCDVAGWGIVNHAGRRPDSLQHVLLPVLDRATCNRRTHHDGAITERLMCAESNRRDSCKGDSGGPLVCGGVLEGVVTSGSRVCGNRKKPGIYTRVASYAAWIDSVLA
row,Structure (SMILES),IC50
1,"CC(=O)c1cn(CC(=O)N2C[C@H](F)C[C@H]2C(=O)NCc2cccc(Cl)c2F)c2cc(OCC3CC3)ccc12 [Compound 1, (2S,4R)-1-(2-(3-acetyl-6-(cyclopropylmethoxy)-1H-indol-1-yl)acetyl)-N-(3-chloro-2-fluorobenzyl)-4-fluoropyrrolidine-2-carboxamide]",< 1 µM
2,"CC(=O)c1cn(CC(=O)N2C[C@H](F)C[C@H]2C(=O)NCc2cccc(Cl)c2F)c2cc(OS(=O)(=O)C(F)(F)F)ccc12 [Compound 2, 3-acetyl-1-(2-((2S,4R)-2-(3-chloro-2-fluorobenzylcarbamoyl)-4-fluoropyrrolidin-1-yl)-2-oxoethyl)-1H-indol-6-yl trifluoromethanesulfonate]",< 1 µM
3,"CC(=O)c1cn(CC(=O)N2[C@@H]3C[C@@H]3C[C@H]2C(=O)NCc2cccc(Cl)c2F)c2cc(OCC3CC3)ccc12 [Compound 3, (1R,3S,5R)-2-(2-(3-acetyl-6-(cyclopropylmethoxy)-1H-indol-1-yl)acetyl)-N-(3-chloro-2-fluorobenzyl)-2-azabicyclo[3.1.0]hexane-3-carboxamide]",< 1 µM
4,"CC(=O)c1cn(CC(=O)N2C[C@H](F)C[C@H]2C(=O)Nc2cccc(OC(F)(F)F)c2F)c2cc(OCC3CC3)ccc12 [Compound 4, (2S,4R)-1-(2-(3-acetyl-6-(cyclopropylmethoxy)-1H-indol-1-yl)acetyl)-4-fluoro-N-(2-fluoro-3-(trifluoromethoxy)phen-yl)pyrrolidine-2-carboxamide]",< 1 µM
5,"CC(=O)c1cn(CC(=O)N2C[C@H](F)C[C@H]2C(=O)NCc2cccc(Cl)c2F)c2cc(OCCC3CC3)ccc12 [Compound 5, (2S,4R)-1-(2-(3-acetyl-6-(2-cyclopropylethoxy)-1H-indol-1-yl)acetyl)-N-(3-chloro-2-fluorobenzyl)-4-fluoropyrrolidine-2-carboxamide]",< 1 µM
6,"CCOP(=O)(COc1ccc2c(C(C)=O)cn(CC(=O)N3C[C@H](F)C[C@H]3C(=O)NCc3cccc(Cl)c3F)c2c1)OCC [Compound 7, diethyl (3-acetyl-1-(2-((2S,4R)-2-(3-chloro-2-fluorobenzylcarbamoyl)-4-fluoropyrrolidin-1-yl)-2-oxoethyl)-1H-indol-6-yloxy)methylphosphonate]",< 1 µM
7,"CC(=O)c1cn(CC(=O)N2C[C@H](F)C[C@H]2C(=O)NCc2cccc(Cl)c2F)c2cc(OCP(=O)(O)O)ccc12 [Compound 8, (3-acetyl-1-(2-((2S,4R)-2-(3-chloro-2-fluorobenzylcarbamoyl)-4-fluoropyrrolidin-1-yl)-2-oxoethyl)-1H-indol-6-yloxy)methylphosphonic acid]",< 1 µM
8,"CC(=O)c1cn(CC(=O)N2C[C@H](F)C[C@H]2C(=O)NCc2cccc(Cl)c2F)c2ccc(OS(=O)(=O)C(F)(F)F)cc12 [Compound 9, 3-acetyl-1-(2-((2S,4R)-2-(3-chloro-2-fluorobenzylcarbamoyl)-4-fluoropyrrolidin-1-yl)-2-oxoethyl)-1H-indol-5-yl trifluoromethanesulfonate]",< 1 µM
9,"CCOP(=O)(COc1ccc2c(c1)c(C(C)=O)cn2CC(=O)N1C[C@H](F)C[C@H]1C(=O)NCc1cccc(Cl)c1F)OCC [Compound 10, diethyl (3-acetyl-1-(2-((2S,4R)-2-(3-chloro-2-fluorobenzylcarbamoyl)-4-fluoropyrrolidin-1-yl)-2-oxoethyl)-1H-indol-5-yloxy)methylphosphonate]",< 1 µM
10,"CC(=O)c1cn(CC(=O)N2C[C@H](F)C[C@H]2C(=O)NCc2cccc(Cl)c2F)c2ccc(OCP(=O)(O)O)cc12 [Compound 11, (3-acetyl-1-(2-((2S,4R)-2-(3-chloro-2-fluorobenzylcarbamoyl)-4-fluoropyrrolidin-1-yl)-2-oxoethyl)-1H-indol-5-yloxy)methylphosphonic acid]",< 1 µM
11,"CC(=O)c1cn(CC(=O)N2C[C@H](F)C[C@H]2C(=O)NCc2cccc(Cl)c2F)c2cc(OCP(=O)(OCOC(=O)OC(C)C)OCOC(=O)OC(C)C)ccc12 [Compound 12, (((3-acetyl-1-(2-((2S,4R)-2-(3-chloro-2-fluorobenzylcarbamoyl)-4-fluoropyrrolidin-1-yl)-2-oxoethyl)-1H-indol-6-yloxy)methyl)phospho-ryl)bis(oxy)bis(methylene) isopropyl dicarbonate]",< 1 µM
12,"CC(=O)c1cn(CC(=O)N2C[C@H](F)C[C@H]2C(=O)NCc2cccc(Cl)c2F)c2cc(OCP(=O)(O)OCOC(=O)OC(C)C)ccc12 [Compound 13, (((3-acetyl-1-(2-((2S,4R)-2-(3-chloro-2-fluorobenzylcarbamoyl)-4-fluoropyrrolidin-1-yl)-2-oxoethyl)-1H-indol-6-yloxy)methyl)(hydro-xy)phosphoryloxy)meth-yl isopropyl carbonate]",< 1 µM
13,"CCOP(=O)(CC)COc1ccc2c(C(C)=O)cn(CC(=O)N3C[C@H](F)C[C@H]3C(=O)NCc3cccc(Cl)c3F)c2c1 (stereo partly drawn) [Compound 14, ethyl (3-acetyl-1-(2-((2S,4R)-2-(3-chloro-2-fluorobenzylcarbamoyl)-4-fluoropyrrolidin-1-yl)-2-oxoethyl)-1H-indol-6-yloxy)methyl(eth-yl)phosphinate]",< 1 µM
14,"CC(=O)c1cn(CC(=O)N2C[C@H](F)C[C@H]2C(=O)NCc2cccc(Cl)c2F)c2cc(OCS(=O)(=O)NC(C)(C)C)ccc12 [Compound 15, (2S,4R)-1-(2-(3-acetyl-6-(N-tert-butylsulfamoylmethoxy)-1H-indol-1-yl)acetyl)-N-(3-chloro-2-fluorobenzyl)-4-fluoropyrrolidine-2-carboxamide]",< 1 µM
15,"CCP(=O)(O)COc1ccc2c(C(C)=O)cn(CC(=O)N3C[C@H](F)C[C@H]3C(=O)NCc3cccc(Cl)c3F)c2c1 [Compound 16, (3-acetyl-1-(2-((2S,4R)-2-(3-chloro-2-fluorobenzylcarbamoyl)-4-fluoropyrrolidin-1-yl)-2-oxoethyl)-1H-indol-6-yloxy)methyl(eth-yl)phosphinic acid]",< 1 µM
16,"CC(=O)c1cn(CC(=O)N2C[C@H](F)C[C@H]2C(=O)NCc2cccc(Cl)c2F)c2cc(OCS(N)(=O)=O)ccc12 [Compound 17, (2S,4R)-1-(2-(3-acetyl-6-(sulfamoylmethoxy)-1H-indol-1-yl)acetyl)-N-(3-chloro-2-fluorobenzyl)-4-fluoropyrrolidine-2-carboxamide]",< 1 µM
17,"CCOP(=O)(COc1ccc2c(C(C)=O)cn(CC(=O)N3C[C@H](F)C[C@H]3C(=O)N[C@H](C)c3cccc(Cl)c3F)c2c1)OCC [Compound 18, diethyl (3-acetyl-1-(2-((2S,4R)-2-((R)-1-(3-chloro-2-fluorophen-yl)ethylcarbamoyl)-4-fluoropyrrolidin-1-yl)-2-oxoethyl)-1H-indol-6-yloxy)methylphosphonate]",< 1 µM
18,"CC(=O)c1cn(CC(=O)N2C[C@H](F)C[C@H]2C(=O)N[C@H](C)c2cccc(Cl)c2F)c2cc(OCP(=O)(O)O)ccc12 [Compound 19, (3-acetyl-1-(2-((2S,4R)-2-((R)-1-(3-chloro-2-fluorophenyl)ethyl-carbamoyl)-4-fluoropyrrolidin-1-yl)-2-oxoethyl)-1H-indol-6-yloxy)methylphosphonic acid]",< 1 µM
19,"CCCCCCCCCCCCCCCCOCCCOP(=O)(O)COc1ccc2c(C(C)=O)cn(CC(=O)N3C[C@H](F)C[C@H]3C(=O)NCc3cccc(Cl)c3F)c2c1 [Compound 20, 3-(hexadecyloxy)propyl hydrogen (3-acetyl-1-(2-((2S,4R)-2-(3-chloro-2-fluorobenzylcarbamoyl)-4-fluoropyrrolidin-1-yl)-2-oxoethyl)-1H-indol-6-yloxy)methylphosphonate]",< 1 µM
20,"CC(=O)c1cn(CC(=O)N2C[C@H](F)C[C@H]2C(=O)NCc2cccc(Cl)c2F)c2cc(OCP(=O)(OCOC(=O)C(C)(C)C)OCOC(=O)C(C)(C)C)ccc12 [Compound 21, (((3-acetyl-1-(2-((2S,4R)-2-(3-chloro-2-fluorobenzylcarbamoyl)-4-fluoropyrrolidin-1-yl)-2-oxoethyl)-1H-indol-6-yloxy)methyl)phosph-oryl)bis(oxy)bis(meth-ylene) bis(2,2-dimethylpropanoate)]",< 1 µM
21,"CC(=O)c1cn(CC(=O)N2C[C@H](F)C[C@H]2CNS(=O)(=O)c2cccc(Cl)c2F)c2cc(OCP(=O)(O)O)ccc12 [Compound 22, (3-acetyl-1-(2-((2S,4R)-2-((3-chloro-2-fluoro-phenylsulfonamido)meth-yl)-4-fluoropyrrolidin-1-yl)-2-oxoethyl)-1H-indol-6-yloxy)methylphosphonic acid]",< 1 µM
22,"CCC(=O)OC(OP(=O)(COc1ccc2c(C(C)=O)cn(CC(=O)N3C[C@H](F)C[C@H]3C(=O)NCc3cccc(Cl)c3F)c2c1)OC(OC(=O)CC)C(C)C)C(C)C (stereo partly drawn) [Compound 23, 1,1′-(((3-acetyl-1-(2-((2S,4R)-2-(3-chloro-2-fluorobenzylcarbamoyl)-4-fluoropyrrolidin-1-yl)-2-oxoethyl)-1H-indol-6-yloxy)methyl)phosph-oryl)bis(oxy)bis(2-methylpropane-1,1-diyl) dipropionate]",< 1 µM
23,"CC(=O)c1cn(CC(=O)N2C[C@H](F)C[C@H]2C(=O)NCc2cccc(Cl)c2F)c2cc(OCP(=O)(N[C@@H](C)C(=O)OC(C)C)N[C@@H](C)C(=O)OC(C)C)ccc12 [Compound 24, (2S,2′S)-isopropyl 2,2′-(((3-acetyl-1-(2-((2S,4R)-2-(3-chloro-2-fluorobenzylcarbamoyl)-4-fluoropyrrolidin-1-yl)-2-oxoethyl)-1H-indol-6-yloxy)methyl)phosph-oryl)bis(azanediyl)di-propanoate]",< 1 µM
